Experiment [1] deals with TNF-α. As to the kind of experiment: TNF-α level in Lipopolysaccharide (LPS) treated mice. Particulars: compared to the control Lipopolysaccharide (LPS) group. In kind it is in vivo.
Experiment [2] addresses COX-1 enzyme (Homo sapiens, UniProt P23219). Put plainly: COX-1 enzyme inhibition. The experiment is classed as biochemical. Particulars: FIG. 3A.
Experiment [3] deals with IL-6. As to the kind of experiment: IL-6 level in LPS treated mice. Particulars: compared to the control LPS group. The experiment is classed as in vivo.
Experiment [4] has as its target T1, COX-2 enzyme (Homo sapiens, UniProt P35354).
T1 sequence (P35354 18-604): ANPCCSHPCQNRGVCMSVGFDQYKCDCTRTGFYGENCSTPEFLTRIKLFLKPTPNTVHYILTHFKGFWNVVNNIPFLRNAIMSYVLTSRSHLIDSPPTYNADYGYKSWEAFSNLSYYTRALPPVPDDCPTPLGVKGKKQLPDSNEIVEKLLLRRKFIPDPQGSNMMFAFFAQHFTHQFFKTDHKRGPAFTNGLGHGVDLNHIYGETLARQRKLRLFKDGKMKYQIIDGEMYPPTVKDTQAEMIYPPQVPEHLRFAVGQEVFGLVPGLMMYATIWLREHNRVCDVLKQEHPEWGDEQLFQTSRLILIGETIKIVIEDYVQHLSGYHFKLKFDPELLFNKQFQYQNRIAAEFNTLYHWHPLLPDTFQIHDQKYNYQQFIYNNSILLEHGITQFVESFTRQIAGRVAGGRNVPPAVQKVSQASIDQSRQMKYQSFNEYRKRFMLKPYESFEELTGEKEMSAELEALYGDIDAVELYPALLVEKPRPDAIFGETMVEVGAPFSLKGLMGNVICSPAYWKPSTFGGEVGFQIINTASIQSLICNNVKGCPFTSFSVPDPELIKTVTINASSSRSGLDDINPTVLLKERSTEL
As to the kind of experiment: COX-2 enzyme inhibition. In kind it is biochemical. As to conditions: FIG. 3A.

Experiment [5] has as its system mice. Put plainly: Disease Activity Index in DSS mice, 21 day study. The experiment is classed as in vivo. As to conditions: end of study period of 21 days, compared with the vehicle DSS group, P<0.04.

COX-1 enzyme, sequence (P23219 24-599): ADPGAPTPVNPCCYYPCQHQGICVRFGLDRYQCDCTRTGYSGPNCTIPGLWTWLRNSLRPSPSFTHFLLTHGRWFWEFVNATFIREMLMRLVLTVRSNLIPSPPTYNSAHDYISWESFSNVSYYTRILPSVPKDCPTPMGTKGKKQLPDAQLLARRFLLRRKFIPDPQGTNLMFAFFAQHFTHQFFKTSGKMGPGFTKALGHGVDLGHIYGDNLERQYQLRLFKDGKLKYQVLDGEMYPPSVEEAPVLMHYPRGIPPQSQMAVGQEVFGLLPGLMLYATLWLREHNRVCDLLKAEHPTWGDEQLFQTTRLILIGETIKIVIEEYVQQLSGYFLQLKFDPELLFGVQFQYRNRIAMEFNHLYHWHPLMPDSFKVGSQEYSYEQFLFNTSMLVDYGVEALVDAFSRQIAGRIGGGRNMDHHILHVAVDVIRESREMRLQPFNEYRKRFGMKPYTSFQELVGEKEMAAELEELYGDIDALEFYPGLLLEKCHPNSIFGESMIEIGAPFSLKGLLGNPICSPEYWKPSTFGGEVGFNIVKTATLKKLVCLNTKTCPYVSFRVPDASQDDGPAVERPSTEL

Consider `COc1cc(C2SCCCS2)ccc1OC(=O)/C=C/c1ccccc1` [compound 2, 4-(1,3-dithian-2-yl)-2-methoxyphenyl cinnamate], for which the “decrease of TNF-α” value in experiment [1] was determined as 26%.

Take `CC/C=C\CC(=O)Oc1ccc(Br)cc1C1SCCCS1` [compound 1, (Z)-4-bromo-2-(1,3-dithian-2-yl)phenyl hex-3-enoate]: the “reduction of COX-1 enzyme activity” value in experiment [2] is given as 38%. The “decrease of IL-6” value in experiment [3] was 19%. Further, the “reduction of COX-2 enzyme activity” value in experiment [4] is reported as 45%. Further, the “decrease of TNF-α” value in experiment [1] is on record as 53%. The “decrease in Disease Activity Index” value in experiment [5] came out at 23%.

Source of the values: patent publication US12227487B1, “Acyloxy substituted phenyl dithiane derivatives” (Renovel Innovations, Inc, priority 2021, dated 2025).
